EP1388586A2, “Identification of broadly reactive DR restricted epitopes” (priority 1998, dated 1999)
Read-outs that look alike come from different tables or passages of the source. Square brackets hold non-standard residues; d marks the D form. Ends that are not written are not given here. Peptide text beside a SMILES is read from it.

Assays:
DRB1*0301 (DR3w17) = target: T1, DRB1*0301 (DR3w17) (Homo sapiens, UniProt P01903+P01911, A100K/A102G/A103R/A169T/F55Y/I96L/K41T/L162R/M171V/P40S/Q125H/Q178H/Q39Y/R42S/S66N/T106N/T262R/W38E/Y61H); assay: Class II peptide-binding assay, DR3 (pH 4.5); conditions: read-out: In IC50 Format DR3 nM; Table VIII; values in parentheses read as lower bounds;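 also: unlabeled peptide competing with a radiolabeled probe peptide for binding to affinity-purified HLA-DR3, IC50 regarded as an approximation of Kd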
T1 construct: used as sources of human HLA class II molecules; endogenous in cells; host or cells: MAT (EBV-transformed homozygous B cell line)

DRB1*0101 (DR1) = target: T2, DRB1*0101 (DR1) (Homo sapiens, UniProt P01903+P01911, A100R/D57E/F55L/F60I/F76Y/I96L/L162R/M171V/P40L/Q125E/R42F/V115G/Y59C); assay: Class II peptide-binding assay, DR1;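 also: competition assay: unlabeled test peptides inhibit binding of a radiolabeled probe peptide to purified DR, with half-maximal inhibition taken as an approximate dissociation constant Kd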
T2 construct: used as sources of human HLA class II molecules; endogenous in cells; host or cells: LG2 (EBV-transformed homozygous B cell line)
Protocol: (§1) Class II peptide-binding assays. […] These assays were chosen as to be representative of the most common DR alleles.
(§2) Radiolabeled peptides were iodinated using the chloramine-T method. […] In appropriate stoichiometric conditions, the IC50 of an unlabeled test peptide to the purified DR is a reasonable approximation of the affinity of interaction (Kd). Peptides were tested in two to four completely independent experiments. […] Final detergent concentration in the incubation mixture was 0.05% Nonidet P-40. Assays were performed at pH 7.0 with the exception of DR3, which was performed at pH 4.5, and DRw53, which was performed at pH 5.0.
(§3) All subsequent inhibition and direct binding assays were the performed using these class II concentrations.

DRB1*0401 (DR4w4) = target: T3, DRB1*0401 (DR4w4) (Homo sapiens, UniProt P01903+P01911, A100K/A169T/F76Y/I96L/K127E/L162R/M171V/N62H/P40V/Q125Y/R42H/S133A/S149N/S66Y/V115G/V209L/W38E); assay: Class II peptide-binding assay, DR4w4;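 also: unlabeled test peptides compete with a radiolabeled probe peptide for binding to affinity-purified HLA-DR, with DR amount titrated to capture a small fraction of label, IC50 approximating Kd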
T3 construct: used as sources of human HLA class II molecules; endogenous in cells; host or cells: PREISS (EBV-transformed homozygous B cell line)

DRB10404 (DR4w14) = target: T4, DRB10404 (DR4w14) (Homo sapiens, UniProt P01903+P01911, A100R/A169T/F76Y/I96L/K127E/L162R/M171V/N62H/P40V/Q125Y/R42H/S133A/S149N/S66Y/V209L/W38E); assay: Class II peptide-binding assay, DR4w14;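 also: unlabeled peptides compete with a radiolabeled probe for binding to affinity-purified HLA-DR, neutral pH, class II amount titrated to bind a small fraction of label, IC50 approximates Kd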
T4 construct: used as sources of human HLA class II molecules; endogenous in cells; host or cells: BIN40 (EBV-transformed homozygous B cell line)

DRB1*0701 (DR7) = DRB1*0701 (DR7) (Homo sapiens, UniProt P01903+P01911, A100R/A102G/A103Q/D57E/D86V/E43K/F76Y/K127E/L162R/M171V/P40G/Q125H/Q99D/R33Q/R42Y/R54Q/S133A/S66F/T210M/V115G/Y107V/Y59L/Y89S); assay: Class II peptide-binding assay, DR7;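 also: unlabeled peptides compete with an iodinated probe peptide for binding to affinity-purified HLA-DR at neutral pH, DR amount titered to bind a small tracer fraction, IC50 approximating Kd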
Protocol: as §1, §2, §3

DRB5*0101 (DR2w2a) = target: T5, DRB5*0101 (DR2w2a) (Homo sapiens, UniProt P01903+Q30154); assay: Class II peptide-binding assay, DR2w2a (DR2w2B2);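 also: competitive binding assay: unlabeled peptide inhibiting binding of a radiolabeled probe peptide to purified DR molecules at pH 7.0, IC50 approximating Kd, lower means stronger binding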
T5 construct: used as sources of human HLA class II molecules; endogenous in cells; host or cells: GM3107 (EBV-transformed homozygous B cell line)
Protocol: as §1, §2, §3

DRB1*1101 (DR5w11) = target: T6, DRB1*1101 (DR5w11) (Homo sapiens, UniProt P01903+P01911, A100R/A169T/A87E/I96F/K41T/L162R/M171V/P40S/Q125H/Q178H/Q39Y/Q99D/R42S/S66Y/T262R/V115G/W38E); assay: Class II peptide-binding assay, DR5w11;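 also: competition by unlabeled test peptide against iodinated probe peptide binding to affinity-purified HLA-DR, class II amount titrated beforehand, half-maximal inhibitory concentration read as approximate Kd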
T6 construct: used as sources of human HLA class II molecules; endogenous in cells; host or cells: SWEIG (EBV-transformed homozygous B cell line)

[1] = read-out: DR1 nM, Table VIII, In IC50 Format
[2] = read-out: DR4w4 nM, Table VIII, In IC50 Format
[3] = read-out: DR4w14 nM, Table VIII, In IC50 Format
[4] = read-out: DR7 nM, Table VIII, In IC50 Format
[5] = read-out: DR2w2B2 nM, Table VIII, In IC50 Format
[6] = read-out: DR5w11 nM, Table VIII, In IC50 Format
[7] = read-out: DR1 nM (In IC50 Format), purified HLA DR1
[8] = read-out: DR4w4 nM (In IC50 Format), purified HLA DR4w4
[9] = read-out: DR4w14 nM (In IC50 Format), purified HLA DR4w14
[10] = read-out: DR7 nM (In IC50 Format), purified HLA DR7
[11] = read-out: DR2w2B2 nM (In IC50 Format), purified HLA DR2w2β2
[12] = read-out: DR5w11 nM (In IC50 Format), purified HLA DR5w11

T6 sequence (P01903 26-254, other chains not shown): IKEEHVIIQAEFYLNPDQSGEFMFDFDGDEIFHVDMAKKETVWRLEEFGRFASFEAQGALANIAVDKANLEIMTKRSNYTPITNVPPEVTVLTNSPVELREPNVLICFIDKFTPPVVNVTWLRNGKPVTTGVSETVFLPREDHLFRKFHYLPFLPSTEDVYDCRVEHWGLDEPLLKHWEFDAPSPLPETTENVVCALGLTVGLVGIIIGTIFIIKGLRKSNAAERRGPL
T1 sequence (P01903 26-254, other chains not shown): as above

Row | Molecule | IC50 (DRB1*0101 (DR1); [7]) | IC50 (DRB1*0401 (DR4w4); [8]) | IC50 (DRB10404 (DR4w14); [9]) | IC50 (DRB1*0701 (DR7); [10]) | IC50 (DRB5*0101 (DR2w2a); [11]) | IC50 (DRB1*1101 (DR5w11); [12]) | further results
1 | CSCC[C@H](NC(=O)CNC(=O)[C@H](CC(C)C)NC(=O)CNC(=O)[C@H](Cc1ccc(O)cc1)NC(=O)[C@@H](N)CS)C(=O)N[C@@H](CCC(=O)O)C(=O)N[C@@H](Cc1c[nH]cn1)C(=O)N[C@@H](CC(C)C)C(=O)N[C@@H](CCCNC(=N)N)C(=O)N[C@@H](CCC(=O)O)C(=O)N[C@H](C(=O)N[C@@H](CCCNC(=N)N)C(=O)N[C@@H](C)C(=O)N[C@H](C(=O)O)C(C)C)C(C)C [Peptide 39.0348] |  |  |  |  |  |  | IC50 (DRB1*0301 (DR3w17)): 36100 nM
2 | LVTYNTDTFESMPNP [Peptide 39.0345] |  |  |  |  |  |  | IC50 (DRB1*0301 (DR3w17)): > 111000 nM
3 | C[C@H](NC(=O)[C@H](N)Cc1ccc(O)cc1)C(=O)N[C@@H](C)C(=O)N[C@@H](Cc1ccccc1)C(=O)N[C@@H](C)C(=O)N[C@@H](C)C(=O)N[C@@H](C)C(=O)N[C@@H](C)C(=O)N[C@H](C(=O)N[C@@H](CCCCN)C(=O)N[C@@H](C)C(=O)N[C@@H](C)C(=O)N[C@@H](C)C(=O)N[C@H](C)C(N)=O)[C@@H](C)O [Peptide 828.10] (H-[dY]AAFAAAATKAAA[dA]-NH2) |  |  |  |  |  |  | IC50 (DRB1*0101 (DR1); [1]): 1.9 nM; IC50 (DRB1*0401 (DR4w4); [2]): 3.4 nM; IC50 (DRB10404 (DR4w14); [3]): 111 nM; IC50 (DRB1*0701 (DR7); [4]): 1250 nM; IC50 (DRB5*0101 (DR2w2a); [5]): 19.8 nM; IC50 (DRB1*1101 (DR5w11); [6]): 22.2 nM
4 | YARFQSQTTLKAKT [Peptide 717.67] | 3.6 nM | 6 nM | 11.1 nM | 1390 nM | 167 nM | 7.4 nM | 
5 | YARFQSLTTLKAKT-NH2 [Peptide 717.15] | 1.2 nM | 2 nM | 9.4 nM | 961 nM | 23.8 nM | 5.3 nM | 
6 | CC(C)C[C@H](NC(=O)[C@@H](NC(=O)[C@@H](NC(=O)[C@H](CCC(N)=O)NC(=O)[C@H](CCCNC(=N)N)NC(=O)[C@H](CCC(N)=O)NC(=O)[C@H](Cc1ccccc1)NC(=O)[C@H](C)NC(=O)[C@H](C)NC(=O)[C@H](N)Cc1ccc(O)cc1)[C@@H](C)O)[C@@H](C)O)C(=O)N[C@@H](CCCCN)C(=O)N[C@@H](C)C(=O)N[C@@H](C)C(=O)N[C@H](C)C(N)=O [Peptide 781.16] (H-[dY]AAFQRQTTLKAA[dA]-NH2) | 3 nM | 3.8 nM | 7 nM | 2780 nM | 155 nM | 10 nM | 
7 | CC(C)C[C@H](NC(=O)[C@H](CCCCN)NC(=O)[C@H](CC(C)C)NC(=O)[C@@H](NC(=O)[C@H](CC(N)=O)NC(=O)[C@H](CCC(N)=O)NC(=O)[C@H](CCCCN)NC(=O)[C@@H](NC(=O)[C@H](Cc1ccc(O)cc1)NC(=O)[C@H](CCCCN)NC(=O)[C@@H]1CCCN1C(=O)[C@@H](N)CS)C(C)C)[C@@H](C)O)C(=O)N[C@@H](C)C(=O)N[C@H](C(=O)NCC(=O)O)[C@@H](C)O [Peptide 852.01] |  |  |  |  |  |  | IC50 (DRB1*0101 (DR1); [1]): 31.6 nM; IC50 (DRB1*0401 (DR4w4); [2]): 30 nM; IC50 (DRB10404 (DR4w14); [3]): 7140 nM; IC50 (DRB1*0701 (DR7); [4]): 65.8 nM; IC50 (DRB5*0101 (DR2w2a); [5]): 2.9 nM; IC50 (DRB1*1101 (DR5w11); [6]): 39.2 nM
8 | YARFQAQTTLKAKT-NH2 [Peptide 717.55] | 2.4 nM | 4.5 nM | 4.3 nM | 5000 nM | 90.9 nM | 11.1 nM | 
9 | YARFQSQTTLKSKT-NH2 [Peptide 717.23] | 294 nM | 2.8 nM | 21.7 nM | 8330 nM | 215 nM | 25.3 nM | 
10 | YAKFQSQTTLKAKT-NH2 [Peptide 717.40] | 8.8 nM | 4.9 nM | 14.3 nM | 3570 nM | 167 nM | 8.7 nM | 
11 | YSRFQSQTTLKAKT-NH2 [Peptide 717.38] | 6.1 nM | 10 nM | 15.2 nM | 6250 nM | 274 nM | 16.7 nM | 
12 | YARFQSQTTIKAKT-NH2 [Peptide 717.19] | 5.7 nM | 3.2 nM | 19.2 nM | 2080 nM | 143 nM | 30.3 nM | 
13 | KMYFNLINTKCYKLEH [Peptide 541.14] |  |  |  |  |  |  | IC50 (DRB1*0101 (DR1); Table VIII, read-out: In IC50 Format DR1): 714 nM; IC50 (DRB1*0401 (DR4w4); Table VIII, read-out: In IC50 Format DR4w4): 2140 nM; IC50 (DRB10404 (DR4w14); Table VIII, read-out: In IC50 Format DR4w14): 3570 nM; IC50 (DRB1*0701 (DR7); Table VIII, read-out: In IC50 Format DR7): 269 nM; IC50 (DRB5*0101 (DR2w2a); Table VIII, read-out: In IC50 Format DR2w2β2): 103 nM; IC50 (DRB1*1101 (DR5w11); Table VIII, read-out: In IC50 Format DR5w11): 250 nM
14 | YARFQSQTTLKAKT-NH2 [Peptide 717.02] | 2.9 nM | 3.7 nM | 18.5 nM | 2780 nM | 125 nM | 18.9 nM | 
15 | YARFQSQTTKKAKT-NH2 [Peptide 717.20] | 11.1 nM | 12.5 nM | 200 nM | 5000 nM | 87 nM | 339 nM | 
16 | CC[C@H](C)[C@H](NC(=O)CNC(=O)[C@@H](NC(=O)[C@H](Cc1ccccc1)NC(=O)[C@H](CCCCN)NC(=O)[C@H](CO)NC(=O)[C@H](CC(N)=O)NC(=O)[C@H](C)NC(=O)[C@H](CCCCN)NC(=O)[C@@H](NC(=O)[C@H](Cc1ccc(O)cc1)NC(=O)[C@@H](N)CCC(N)=O)[C@@H](C)CC)[C@@H](C)CC)C(=O)N[C@H](C(=O)N[C@@H](CCC(=O)O)C(=O)N[C@@H](CC(C)C)C(=O)N[C@@H](CCCCN)C(=O)N[C@@H](CCCCN)C(N)=O)[C@@H](C)O [Peptide 812.01] |  |  |  |  |  |  | IC50 (DRB1*0101 (DR1); purified HLA DR1, read-out: DR1 nM (In IC50 Format)): 80.6 nM; IC50 (DRB1*0401 (DR4w4); purified HLA DR4w4, read-out: DR4w4 nM (In IC50 Format)): 409 nM; IC50 (DRB10404 (DR4w14); purified HLA DR4w14, read-out: DR4w14 nM (In IC50 Format)): 16700 nM; IC50 (DRB1*0701 (DR7); purified HLA DR7, read-out: DR7 nM (In IC50 Format)): 357 nM; IC50 (DRB5*0101 (DR2w2a); purified HLA DR2w2β2, read-out: DR2w2B2 nM (In IC50 Format)): 16 nM; IC50 (DRB1*1101 (DR5w11); purified HLA DR5w11, read-out: DR5w11 nM (In IC50 Format)): 28.6 nM
17 | AAFAAAAAQRLFA-NH2 [Peptide 761.01] | 2.3 nM | 30 nM | 3330 nM | 7.6 nM | 1.2 nM | 556 nM | 
18 | YARFQSQTSLKAKT-NH2 [Peptide 717.31] | 4.5 nM | 5.1 nM | 10.6 nM | 676 nM | 143 nM | 20 nM | 
19 | YARFQSQTTLKAKE-NH2 [Peptide 717.28] | 4.5 nM | 26.5 nM | 12.8 nM | 5000 nM | 95.2 nM | 16.7 nM | 
20 | CPIAIMSALAMVYLGAKDS [Peptide 705.04] | 53.2 nM | 882 nM | 1140 nM | 1090 nM | 408 nM | 6670 nM | 
21 | YARFQSQTVLKAKT-NH2 [Peptide 717.32] | 7.6 nM | 5.7 nM | 10.4 nM | 151 nM | 400 nM | 14.3 nM | 
22 | YARFQSATTLKAKT-NH2 [Peptide 717.54] | 4.6 nM | 4.1 nM | 7.2 nM | 676 nM | 60.6 nM | 9.5 nM | 
23 | YARFQSQATLKAKT-NH2 [Peptide 717.53] | 2 nM | 9.2 nM | 10.6 nM | 3570 nM | 167 nM | 20 nM | 
24 | YARFASQTTLKAKT-NH2 [Peptide 782.02] | 3.6 nM | 2.5 nM | 14.7 nM | 6250 nM | 191 nM | 25.7 nM | 
